Assays:
Assay type in all cases: in vivo
[1] = system: barnyardgrass (Echinochloa crus-galli); assay: Test A pre-/postemergence: barnyardgrass; details: for Barnyardgrass plant response rating: Postemergence; for Plant response rating, Barnyardgrass: Preemergence
Summary of the method: (§1)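 Soil medium was loam blended with sand; treatments pre- and postemergence were applied concurrently, postemergence at one- to two-leaf stage. Approximately ten days in greenhouse preceded visual comparison with untreated controls, scored 0 (no effect) to 100 (complete control).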

[2] = system: crabgrass, large (large crabgrass, Digitaria sanguinalis); assay: Test A pre-/postemergence: crabgrass, large; details: for Crabgrass, Large plant response rating: Postemergence; for Plant response rating, Crabgrass, Large: Preemergence
Summary of the method: as §1

[3] = system: foxtail, giant (giant foxtail, Setaria faberii); assay: Test A pre-/postemergence: foxtail, giant; details: for Foxtail, Giant plant response rating: Postemergence; for Plant response rating, Foxtail, Giant: Preemergence
Summary of the method: as §1

[4] = system: morningglory (Ipomoea spp.); assay: Test A pre-/postemergence: morningglory; details: for Morningglory plant response rating: Postemergence; for Plant response rating, Morningglory: Preemergence
Summary of the method: as §1

[5] = system: pigweed (Amaranthus retroflexus); assay: Test A pre-/postemergence: pigweed; details: for Pigweed plant response rating: Postemergence; for Plant response rating, Pigweed: Preemergence
Summary of the method: as §1

[6] = system: velvetleaf (Abutilon theophrasti); assay: Test A pre-/postemergence: velvetleaf; details: for Velvetleaf plant response rating: Postemergence; for Plant response rating, Velvetleaf: Preemergence
Summary of the method: as §1

[7] = system: wheat (Triticum aestivum); assay: Test A pre-/postemergence: wheat; details: for Wheat plant response rating: Postemergence; for Plant response rating, Wheat: Preemergence
Summary of the method: as §1

corn (Zea mays) = assay: Test A pre-/postemergence: corn; details: for Corn plant response rating: Postemergence; for Plant response rating, Corn: Preemergence
Summary of the method: as §1

rice (Oryza sativa) = assay: Test C flooded paddy test: rice; details: scale 0 to 100 (0 no effect, 100 complete control)
From the text: (§2) Plant species in the flooded paddy test consisted of rice (Oryza sativa), sedge, umbrella (small-flower umbrella sedge, Cyperus difformis), ducksalad (Heteranthera limosa) and barnyardgrass (Echinochloa crus-galli) grown to the 2-leaf stage for testing. At time of treatment, test pots were flooded to 3 cm above the soil surface, treated by application of test compounds directly to the paddy water, and then maintained at that water depth for the duration of the test.
(§3) Treated plants and controls were maintained in a greenhouse for 13 to 15 days, after which time all species were compared to controls and visually evaluated. Plant response ratings, summarized in Table C, are based on a scale of 0 to 100 where 0 is no effect and 100 is complete control. A dash (-) response means no test result.

[8] = system: sedge, umbrella (small-flower umbrella sedge, Cyperus difformis); assay: Test C flooded paddy test: sedge, umbrella; details: scale 0 to 100 (0 no effect, 100 complete control)
Summary of the method: (§4)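 Greenhouse plants treated at the 2-leaf stage by dosing the flood water (3 cm depth, maintained) were compared with controls after 13 to 15 days and rated 0 to 100, where 100 means complete control; a dash marks no test result.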

[9] = system: ducksalad (Heteranthera limosa); assay: Test C flooded paddy test: ducksalad; details: scale 0 to 100 (0 no effect, 100 complete control)
From the text: as §2, §3

[10] = system: barnyardgrass (Echinochloa crus-galli); assay: Test C flooded paddy test: barnyardgrass; details: scale 0 to 100 (0 no effect, 100 complete control)
Summary of the method: as §4

[11] = 125 g ai/ha, 0 to 100 scale, 0 is no effect, 100 is complete control
[12] = 500 g ai/ha, visual rating on 0 to 100 scale (0 no effect, 100 complete control), approximately ten days
[13] = 125 g ai/ha, 0 to 100 scale (0 no effect, 100 complete control)
[14] = 500 g ai/ha, 0 to 100 scale, 0 is no effect, 100 is complete control
[15] = Flood (flooded paddy test), 62 g ai/ha, visual rating after 13 to 15 days
[16] = Flood (flooded paddy test), 125 g ai/ha, visual rating after 13 to 15 days
[17] = Flood (flooded paddy test), 250 g ai/ha, visual rating after 13 to 15 days

Cc1nn(-c2ccncc2)nc1C(=O)c1cccc(C(F)(F)F)c1 [Compound 22]
Barnyardgrass plant response rating [1, 11]: 10
Barnyardgrass plant response rating [1, 12]: 20
Plant response rating, Barnyardgrass [1, 13]: 0
Plant response rating, Barnyardgrass [1, 14]: 10
Crabgrass, Large plant response rating [2, 11]: 40
Crabgrass, Large plant response rating [2, 12]: 60
Plant response rating, Crabgrass, Large [2, 13]: 10
Plant response rating, Crabgrass, Large [2, 14]: 40
Foxtail, Giant plant response rating [3, 11]: 20
Foxtail, Giant plant response rating [3, 12]: 50
Plant response rating, Foxtail, Giant [3, 13]: 20
Plant response rating, Foxtail, Giant [3, 14]: 80
Morningglory plant response rating [4, 11]: 10
Morningglory plant response rating [4, 12]: 20
Plant response rating, Morningglory [4, 13]: 0
Plant response rating, Morningglory [4, 14]: 0
Pigweed plant response rating [5, 11]: 50
Pigweed plant response rating [5, 12]: 80
Plant response rating, Pigweed [5, 13]: 10
Plant response rating, Pigweed [5, 14]: 10
Velvetleaf plant response rating [6, 11]: 10
Velvetleaf plant response rating [6, 12]: 30
Plant response rating, Velvetleaf [6, 13]: 0
Plant response rating, Velvetleaf [6, 14]: 0
Wheat plant response rating [7, 11]: 10
Plant response rating, Wheat [7, 13]: 0
Plant response rating, Wheat [7, 14]: 0
Corn plant response rating (corn (Zea mays); [11]): 10
Corn plant response rating (corn (Zea mays); [12]): 20
Plant response rating, Corn (corn (Zea mays); [13]): 0
Plant response rating, Corn (corn (Zea mays); [14]): 0
Plant response rating, Rice (rice (Oryza sativa); [15]): 0
Plant response rating, Rice (rice (Oryza sativa); [16]): 0
Plant response rating, Rice (rice (Oryza sativa); [17]): 0
Plant response rating, Rice (rice (Oryza sativa); Flood, 31 g ai/ha): 0
Plant response rating, Sedge, Umbrella [8, 15]: 0
Plant response rating, Sedge, Umbrella [8, 16]: 0
Plant response rating, Sedge, Umbrella [8, 17]: 0
Plant response rating, Sedge, Umbrella ([8]; Flood, 31 g ai/ha): 0
Plant response rating, Ducksalad [9, 15]: 0
Plant response rating, Ducksalad [9, 16]: 0
Plant response rating, Ducksalad [9, 17]: 0
Plant response rating, Ducksalad ([9]; Flood, 31 g ai/ha): 0
Plant response rating, Barnyardgrass [10, 15]: 0
Plant response rating, Barnyardgrass [10, 16]: 0
Plant response rating, Barnyardgrass [10, 17]: 0
Plant response rating, Barnyardgrass ([10]; Flood, 31 g ai/ha): 0

COc1nn(-c2ccc(C(F)(F)F)cc2)nc1Cc1cccc(C(F)(F)F)c1 [Compound 29]
Barnyardgrass plant response rating [1, 11]: 20
Barnyardgrass plant response rating [1, 12]: 40
Plant response rating, Barnyardgrass [1, 13]: 10
Plant response rating, Barnyardgrass [1, 14]: 50
Crabgrass, Large plant response rating [2, 11]: 90
Crabgrass, Large plant response rating [2, 12]: 90
Plant response rating, Crabgrass, Large [2, 13]: 90
Plant response rating, Crabgrass, Large [2, 14]: 100
Foxtail, Giant plant response rating [3, 11]: 60
Foxtail, Giant plant response rating [3, 12]: 90
Plant response rating, Foxtail, Giant [3, 13]: 80
Plant response rating, Foxtail, Giant [3, 14]: 100
Morningglory plant response rating [4, 11]: 80
Morningglory plant response rating [4, 12]: 100
Plant response rating, Morningglory [4, 13]: 0
Plant response rating, Morningglory [4, 14]: 10
Pigweed plant response rating [5, 11]: 100
Pigweed plant response rating [5, 12]: 100
Plant response rating, Pigweed [5, 13]: 50
Plant response rating, Pigweed [5, 14]: 90
Velvetleaf plant response rating [6, 11]: 60
Velvetleaf plant response rating [6, 12]: 80
Plant response rating, Velvetleaf [6, 13]: 0
Plant response rating, Velvetleaf [6, 14]: 50
Wheat plant response rating [7, 11]: 0
Wheat plant response rating [7, 12]: 30
Plant response rating, Wheat [7, 13]: 0
Plant response rating, Wheat [7, 14]: 0
Corn plant response rating (corn (Zea mays); [11]): 20
Corn plant response rating (corn (Zea mays); [12]): 20
Plant response rating, Corn (corn (Zea mays); [13]): 0
Plant response rating, Corn (corn (Zea mays); [14]): 0
Plant response rating, Rice (rice (Oryza sativa); [15]): 0
Plant response rating, Rice (rice (Oryza sativa); [16]): 0
Plant response rating, Rice (rice (Oryza sativa); [17]): 0
Plant response rating, Rice (rice (Oryza sativa); Flood, 31 g ai/ha): 0
Plant response rating, Sedge, Umbrella [8, 15]: 60
Plant response rating, Sedge, Umbrella [8, 16]: 70
Plant response rating, Sedge, Umbrella [8, 17]: 75
Plant response rating, Sedge, Umbrella ([8]; Flood, 31 g ai/ha): 50
Plant response rating, Ducksalad [9, 15]: 0
Plant response rating, Ducksalad [9, 16]: 0
Plant response rating, Ducksalad [9, 17]: 0
Plant response rating, Ducksalad ([9]; Flood, 31 g ai/ha): 0
Plant response rating, Barnyardgrass [10, 15]: 0
Plant response rating, Barnyardgrass [10, 16]: 0
Plant response rating, Barnyardgrass [10, 17]: 20
Plant response rating, Barnyardgrass ([10]; Flood, 31 g ai/ha): 0

Cc1nn(-c2ccc(F)cc2)nc1Cc1ccnc(OCC(F)(F)F)c1 [Compound 33]
Barnyardgrass plant response rating [1, 11]: 0
Barnyardgrass plant response rating [1, 12]: 0
Plant response rating, Barnyardgrass [1, 13]: 0
Plant response rating, Barnyardgrass [1, 14]: 0
Crabgrass, Large plant response rating [2, 11]: 0
Crabgrass, Large plant response rating [2, 12]: 10
Plant response rating, Crabgrass, Large [2, 13]: 0
Plant response rating, Crabgrass, Large [2, 14]: 10
Foxtail, Giant plant response rating [3, 11]: 0
Foxtail, Giant plant response rating [3, 12]: 10
Plant response rating, Foxtail, Giant [3, 13]: 0
Plant response rating, Foxtail, Giant [3, 14]: 0
Morningglory plant response rating [4, 11]: 0
Morningglory plant response rating [4, 12]: 10
Plant response rating, Morningglory [4, 13]: 0
Plant response rating, Morningglory [4, 14]: 0
Pigweed plant response rating [5, 11]: 10
Pigweed plant response rating [5, 12]: 50
Plant response rating, Pigweed [5, 13]: 0
Plant response rating, Pigweed [5, 14]: 0
Velvetleaf plant response rating [6, 11]: 0
Velvetleaf plant response rating [6, 12]: 0
Plant response rating, Velvetleaf [6, 13]: 0
Plant response rating, Velvetleaf [6, 14]: 0
Wheat plant response rating [7, 11]: 0
Wheat plant response rating [7, 12]: 0
Plant response rating, Wheat [7, 13]: 0
Plant response rating, Wheat [7, 14]: 0
Corn plant response rating (corn (Zea mays); [11]): 0
Corn plant response rating (corn (Zea mays); [12]): 10
Plant response rating, Corn (corn (Zea mays); [13]): 0
Plant response rating, Corn (corn (Zea mays); [14]): 0
Plant response rating, Rice (rice (Oryza sativa); [15]): 0
Plant response rating, Rice (rice (Oryza sativa); [16]): 0
Plant response rating, Rice (rice (Oryza sativa); [17]): 0
Plant response rating, Rice (rice (Oryza sativa); Flood, 31 g ai/ha): 0
Plant response rating, Sedge, Umbrella [8, 15]: 0
Plant response rating, Sedge, Umbrella [8, 16]: 0
Plant response rating, Sedge, Umbrella [8, 17]: 0
Plant response rating, Sedge, Umbrella ([8]; Flood, 31 g ai/ha): 0
Plant response rating, Ducksalad [9, 15]: 0
Plant response rating, Ducksalad [9, 16]: 0
Plant response rating, Ducksalad [9, 17]: 0
Plant response rating, Ducksalad ([9]; Flood, 31 g ai/ha): 0
Plant response rating, Barnyardgrass [10, 15]: 0
Plant response rating, Barnyardgrass [10, 16]: 0
Plant response rating, Barnyardgrass [10, 17]: 0
Plant response rating, Barnyardgrass ([10]; Flood, 31 g ai/ha): 0

Cc1nn(-c2ccc(F)cc2)nc1Cn1cnc(C(F)(F)F)c1Cl [Compound 36]
Barnyardgrass plant response rating [1, 11]: 0
Barnyardgrass plant response rating [1, 12]: 0
Plant response rating, Barnyardgrass [1, 13]: 0
Plant response rating, Barnyardgrass [1, 14]: 0
Crabgrass, Large plant response rating [2, 11]: 0
Crabgrass, Large plant response rating [2, 12]: 0
Plant response rating, Crabgrass, Large [2, 13]: 0
Plant response rating, Crabgrass, Large [2, 14]: 10
Foxtail, Giant plant response rating [3, 11]: 0
Foxtail, Giant plant response rating [3, 12]: 0
Plant response rating, Foxtail, Giant [3, 13]: 0
Plant response rating, Foxtail, Giant [3, 14]: 0
Morningglory plant response rating [4, 11]: 0
Morningglory plant response rating [4, 12]: 0
Plant response rating, Morningglory [4, 13]: 0
Plant response rating, Morningglory [4, 14]: 0
Pigweed plant response rating [5, 11]: 0
Pigweed plant response rating [5, 12]: 20
Plant response rating, Pigweed [5, 13]: 0
Plant response rating, Pigweed [5, 14]: 0
Velvetleaf plant response rating [6, 11]: 0
Velvetleaf plant response rating [6, 12]: 10
Plant response rating, Velvetleaf [6, 13]: 0
Plant response rating, Velvetleaf [6, 14]: 0
Wheat plant response rating [7, 11]: 0
Wheat plant response rating [7, 12]: 0
Plant response rating, Wheat [7, 13]: 0
Plant response rating, Wheat [7, 14]: 0
Corn plant response rating (corn (Zea mays); [11]): 0
Corn plant response rating (corn (Zea mays); [12]): 0
Plant response rating, Corn (corn (Zea mays); [13]): 0
Plant response rating, Corn (corn (Zea mays); [14]): 0
Plant response rating, Rice (rice (Oryza sativa); [15]): 0
Plant response rating, Rice (rice (Oryza sativa); [16]): 0
Plant response rating, Rice (rice (Oryza sativa); [17]): 0
Plant response rating, Rice (rice (Oryza sativa); Flood, 31 g ai/ha): 0
Plant response rating, Sedge, Umbrella [8, 15]: 0
Plant response rating, Sedge, Umbrella [8, 16]: 0
Plant response rating, Sedge, Umbrella [8, 17]: 0
Plant response rating, Sedge, Umbrella ([8]; Flood, 31 g ai/ha): 0
Plant response rating, Ducksalad [9, 15]: 0
Plant response rating, Ducksalad [9, 16]: 0
Plant response rating, Ducksalad [9, 17]: 0
Plant response rating, Ducksalad ([9]; Flood, 31 g ai/ha): 0
Plant response rating, Barnyardgrass [10, 15]: 0
Plant response rating, Barnyardgrass [10, 16]: 0
Plant response rating, Barnyardgrass [10, 17]: 0
Plant response rating, Barnyardgrass ([10]; Flood, 31 g ai/ha): 0
